From patent US9221900B2, “Methods for identifying safe and functional humanized antibodies” (AC IMMUNE S.A., priority 2010, dated 2015)

Legend:
APP/PS1 mice = assay: In vivo two-photon imaging of amyloid plaques; set-up: species or system mouse; conditions: systemic dosing; tracked over multiple weeks
Protocol: FIG. 11 provides In vivo imaging of Aβ plaques in APP/PS1 mice treated with anti-beta amyloid antibody was performed. Systemic dosing of MABT modulates individual amyloid plaques in vivo. Amyloid plaques in APP/PS1 animals were labeled with Methoxy-X04 injected I.P., visualized by in vivo two-photon microscopy and tracked over multiple weeks (A). The relative change in plaque volume over time plotted as fold-increase from the initial imaging session (B).
Cranial windows were implanted above the somatosensory cortex of 10-month old APP hAPP(V717I)/PS1 mice, as previously described (Trachtenberg et al 2002, Holtmaat et al 2009), 2 weeks before the initial imaging session. Twenty-four hours prior to each imaging session animals were injected with 10 mg/kg Methoxy-X04 I.P. to visualize individual amyloid plaques (Klunk et al 2002) and immediately prior to imaging injected I.V. with AngioSense680 (VisEn Medical) to visualize blood vessels. For each imaging session animals were anesthetized with an isoflurane-oxygen mixture and mounted to the microscope using a head post. Images were collected via a two-photon laser scanning microscope (Ultima in vivo; Prairie Technologies) using a Ti:sapphire laser (MaiTai DeepSee; Spectra Physics) tuned to 820 nm delivering ˜30 mW to the back-focal plane of a 40× NA 0.8 objective lens (Olympus). […]

[1] = tested on: Aβ plaques in the brains of transgenic mice expressing hAPP; assay: Immunostaining of Aβ plaques in brain sections of hAPP transgenic mice; format: binding; conditions: hAPP transgenic mouse brain sections
Text: FIG. 1 provides graphs and immunohistochemical images corresponding to the experiments described in Example 6.1 and 6.2. […] As a control, an anti-Aβ IgG monoclonal antibody with a N-terminal epitope was used. […] The mean (±SEM) of two assays is shown.

Aβ1-42 = Aβ1-42 (Homo sapiens, UniProt P05067); assay: Aβ1-42 self-assembly assay not relying on ThT fluorescence; format: biochemical; conditions: labeled Aβ1-42 onto immobilized un-labeled Aβ1-42
[2] = tested on: amyloid plaques in human AD brain sections; assay: Immunohistochemistry of amyloid plaques in human AD brain sections; format: binding
Text: Paraffin mounted temporal lobe brain sections (20 μm) from an AD patient and from an age-matched non-AD control (Tissue Solutions, Clydebank, UK) were used for immunohistochemistry staining. […] A goat-anti-human biotinylated IgG was used as a secondary antibody. Staining was done with diaminobenzidin (Dako, Glostrup, Denmark) and mounting using Eukitt mounting medium. Images were acquired on a LSM 700 inverted microscope from Zeiss.

[3] = tested on: primary cortical cultures; assay: Intracellular Aβ1-42 accumulation ELISA on trypsin-cleared cells; format: cell-based, rat
Protocol: FIG. 3 provides graphs and immunocytochemical images corresponding to the experiments described in Example 6.4. Aβ1-42 oligomer binding to neurites was reduced by the anti-Aβ IgG4 monoclonal antibody. […] Green indicates staining with TuJ1, red indicates labeling with anti-Aβ (clone 6E10), and blue indicates staining with DAPI. […] Quantitative measures of fluorescence are shown for 30 min treatment and 18 h treatment (B). Mean results (±SEM) of two experiments are shown. […] Cortical cultures from P1 rats were treated as described for (A), except that Aβ1-42 tagged with HyLite Fluor-488 was used (C). Aβ1-42-labeled samples are shown in the upper panel and DAPI-stained samples are shown in the lower panel. […] Aβ1-42 fluorescence was quantified, with the mean (±SD) of the two independent experiments shown (D). […]
The intracellular accumulation of Aβ1-42 was determined in trypsin-cleared cells using an ELISA assay.
To measure intracellular Aβ1-42 accumulation by ELISA, primary cortical cultures were treated in 6-well cell-culture plates (Costar) after which they were washed and trypsin-cleared (Bateman et al., 2007) before lysis in cell-lysis buffer consisting of 50 mM Tris-HCl (pH 8.0), 150 mM NaCl, 5 mM EDTA, 1 mM sodium orthovanadate, 1% Triton X-100, and containing protease- and phosphatase-inhibitor cocktails. Protein concentration was determined by the BCA assay (Pierce). […]

[4] = tested on: mouse embryonic cortical neurons; assay: Aβ1-42-induced degeneration of embryonic cortical neurons, TuJ1 immunofluorescence; format: cell-based; conditions: Aβ1-42 with MABT for four days
Protocol: FIG. 2 provides graphs and immunocytochemical images corresponding to the experiments described in Example 6.3. […] An MTT assay was used to determine cell viability as described in the Methods section. The means (±SEM) of five independent experiments are shown. *P<0.05, **P<0.01. […] Neurotoxicity following extended Aβ1-42 oligomer treatment was tested by morphological analyses (C).
A non-specific IgG monoclonal antibody was used as a control in all experiments.
The cytotoxicity of Aβ1-42 oligomers was tested on mixed cortical cultures at DIV 5. All antibodies, at a final concentration of 100 μg/mL, were co-incubated with Aβ1-42 oligomers for 30 min in serum-free cell culture medium at 37° C. before treatment of cells. For some experiments, mixed cortical cultures were pre-treated for 1 h with 1 μM SB239063, a potent second-generation p38 inhibitor, before treatment with Aβ1-42 oligomers. […] Briefly, for the last 3 h of treatment, cells grown in 96-well plates (Costar) were incubated with the MTT dye solution and the generation of a blue formazan product was measured by reading absorbance at 570 and 690 nm using a plate reader (Tecan). […] A FITC-labeled secondary antibody was used to visualize microtubules using fluorescence microscopy.

Aβ1-42, sequence (P05067 672-713 limits assumed): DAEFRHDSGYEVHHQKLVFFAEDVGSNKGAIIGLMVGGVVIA

MABT: humanized anti-Aβ monoclonal antibody of IgG4 isotype, affinity matured and humanized form of mouse mMABT
individual plaque volume (APP/PS1 mice): decreased in volume
binding to Aβ plaques [1]: immunodecorated
Aβ1-42 self-assembly (Aβ1-42): prevented the self-assembly of Aβ1-42 in a dose-dependent manner
binding to amyloid plaques [2]: immunodecorated
reduction of Aβ1-42 oligomer internalization (intracellular accumulation) [3]: more than 60%
neuronal morphology after Aβ1-42 treatment [4]: appeared similar to control cells
